Data published in patent US11517556B2, “Composition for BKCa channel activation” (GWANGJU INSTITUTE OF SCIENCE AND TECHNOLOGY, priority 2016, dated 2022).

Legend:
[1] = target: T1, mutant BKCa channel (G803D/N806K) (Rattus norvegicus, UniProt Q62976, G803D/N806K); test: Cell-based TI+ fluorescence (FluxOR) assay in AD-293 cells
T1 construct: expressed in transfected cells
Experimental: AD-293 cells (Lee et al., 2013), as a modified HEK293 cell for expressing a mutant BKCa channel, were placed in DMEM (Dulbecco's Modified Eagle's medium) supplemented with 10% fetal bovine serum and 1 mg/ml geneticin (Gibco) as an antibiotic. The cells were cultured under a humidified condition of 5% CO2 and 37° C.
AD-293 cells stably expressing the mutant BKCa channel (G803D/N806K) were used for cell-based assays (Lee et al., 2013). Approximately 20,000 cells/well were inoculated on a black-wall assay plate (Corning Incorporated) coated with poly-D-lysine (Sigma-Aldrich), which is 96-well clear-bottom. A FluxOR™ […] (Invitrogen) was used for initial screening of compound libraries, and for further assay of candidate compounds. Experiments were performed according to the manufacturer's following guidelines: growth medium was replaced with 80 μl/well of loading buffer containing FluxOR™ fluorescent dye, and incubation was carried out for 1 hour under a light-free condition. After the incubation, the loading buffer was replaced with 100 μl/well of assay buffer containing various concentrations of compounds of interest, followed by incubation for 20 minutes to 30 minutes. DMSO (1%) was vehicle and the vehicle was used for all test compounds. CTBIC (Cormemis et al. 2005; Lee et al. 2012), previously identified as an activator of the BKCa channel, was used as a positive control. For fluorescence measurements, synergy TM H1 hybrid multi-mode microplate reader (BioTek Instrument Inc., Winnoski, Vt.) and Cen5 software was used in initial screening. For additional assays, Flexstation 3 multi-mode microplate reader (Molecular Devices) and SoftMax®Pro software were used, respectively. A fluorescence signal was obtained at an excitation wavelength of 485 nm and an emission wavelength of 528 nm. Membrane polarization was induced by a stimulus buffer containing thallium ion. The fluorescence signal was measured under two conditions: every 10 seconds for 2 minutes before treating the stimulation buffer and then every 10 seconds for 3 minutes after addition of stimulation buffer for synergy H1, and every 2 seconds for 20 seconds before stimulus buffer treatment, and then every 2 seconds for 160 seconds after adding the stimulus buffer for FlexStation 3.
A fluorescence signal change was measured based on a relative fluorescence unit (RFU) or F/F0 where F0 is ta minimum fluorescence value of each fluorescence trace. To quantitatively compare activation effects of kurarinone and its derivatives, an initial fluorescence increase was calculated using first three points after treatment with the stimulation buffer, and a linear slope was predicted using OriginPro 9.1 (OriginLab Corp., Northampton, Mass.).

[2] = target: T2, rat BKCa channel α-subunit (rSlo1) (Rattus norvegicus, UniProt Q62976); test: Single-channel patch-clamp recording, outside-out patches of Xenopus oocytes; type: cell-based; conditions: 5 μM
T2 construct: expressed in transfected cells; host or cells: Xenopus laevis oocytes injected with cRNA (vector pNBC1.0)
T2 sequence (Q62976 whole entry): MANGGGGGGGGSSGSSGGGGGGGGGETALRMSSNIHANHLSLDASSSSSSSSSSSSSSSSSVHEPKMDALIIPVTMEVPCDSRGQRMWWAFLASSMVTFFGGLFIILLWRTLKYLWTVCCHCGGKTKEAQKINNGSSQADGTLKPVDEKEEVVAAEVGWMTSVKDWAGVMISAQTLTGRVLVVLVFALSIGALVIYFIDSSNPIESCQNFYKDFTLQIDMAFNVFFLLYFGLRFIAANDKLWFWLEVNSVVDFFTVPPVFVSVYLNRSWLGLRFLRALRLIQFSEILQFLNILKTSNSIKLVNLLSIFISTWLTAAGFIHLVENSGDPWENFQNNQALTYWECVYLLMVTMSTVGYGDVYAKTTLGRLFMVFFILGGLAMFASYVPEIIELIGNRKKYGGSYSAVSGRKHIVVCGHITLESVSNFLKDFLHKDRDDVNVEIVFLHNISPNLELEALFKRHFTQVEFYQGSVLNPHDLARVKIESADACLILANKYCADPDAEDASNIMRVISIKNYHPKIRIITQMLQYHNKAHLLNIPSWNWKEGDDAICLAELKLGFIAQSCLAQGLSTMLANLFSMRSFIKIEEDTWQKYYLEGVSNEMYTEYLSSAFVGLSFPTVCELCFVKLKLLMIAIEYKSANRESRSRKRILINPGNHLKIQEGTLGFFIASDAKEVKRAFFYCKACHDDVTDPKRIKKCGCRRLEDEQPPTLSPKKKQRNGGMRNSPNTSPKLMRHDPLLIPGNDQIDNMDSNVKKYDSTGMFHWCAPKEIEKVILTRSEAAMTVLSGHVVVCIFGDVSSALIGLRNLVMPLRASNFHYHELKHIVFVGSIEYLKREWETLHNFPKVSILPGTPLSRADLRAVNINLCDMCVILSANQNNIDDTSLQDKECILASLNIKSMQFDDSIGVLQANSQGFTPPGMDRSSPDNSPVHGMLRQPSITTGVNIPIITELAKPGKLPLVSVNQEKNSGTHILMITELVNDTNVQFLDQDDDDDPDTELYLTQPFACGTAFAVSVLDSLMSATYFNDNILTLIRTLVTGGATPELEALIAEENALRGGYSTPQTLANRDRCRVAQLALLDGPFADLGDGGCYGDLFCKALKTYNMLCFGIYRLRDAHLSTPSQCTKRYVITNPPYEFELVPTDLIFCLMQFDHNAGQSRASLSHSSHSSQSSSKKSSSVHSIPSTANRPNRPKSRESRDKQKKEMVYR
Excerpt: Xenopus laevis oocytes heterologously expressing a BKCa channel α-subunit (Slo1) were used for electrophysiological recording. Subcloning and functional expression of the rat BKCa channel α-subunit using the oocyte expression vector pNBC1.0 has been reported (Ha et al., 2000). Sequence information of Slo1 used in the present disclosure is published in GenBank as expression number AF135265. Plasmid DNA was linearized using Notl restriction enzyme, and complementary RNA (cRNA) was synthesized using T7 RNA polymerase in the presence of nucleoside triphosphate and cap analog m7G(5′)ppp(5′)G from a linear form of DNA using mMessage Machine (Ambion).
Oocytes from stages V to VI were surgically removed from ovarian lobes of anesthetized X. laevis (Xenopus I, Dexter, Mich.). The removed oocytes were transferred to a Ca^2+-free oocyte ringer's (OR) culture medium (86 mM NaCl, 1.5 mM KCl, 2 mM MgCl2 and 10 mM HEPES, pH 7.6). The oocytes were cultured in Ca^2+-free OR medium containing 3 mg/ml collagenase (Worthington Biochemicals) for 1 hour and 30 minutes to 2 hours. This removed the follicular cell layer of the oocyte. Then, the oocytes were widely washed with Ca^2+-free OR culture medium and ND-96 medium (96 mM NaCl, 2 mM KCl, 1.8 mM CaCl2, 1 mM MgCl2, 5 mM HEPES, and 50 µg/ml gentamycin, pH 7.6). The washed oocytes were stored at 18° C. in ND-96 medium. Before oocyte was used, the oocyte was stabilized for at least one day. After the stabilization, approximately 50 ng of synthesized cRNA in 50 nl of nuclease-free water was injected into each oocyte for macroscopic current recording, and approximately 1 ng of synthesized cRNA in 50 nl of nuclease-free water was injected into each oocyte for single-channel recording using a micro-dispenser (Drummond Scientific, Broomall, Pa.). The cRNA-injected oocytes were cultured in ND-96 medium for 1 to 3 days at 18 degree C. Immediately prior to the patch-clamp experiment, the oocyte's vitelline membrane was manually removed with fine forceps. […]
A single BKCa channel was readily activated by a membrane potential simply transferred at 100 mV at a high concentration of intracellular Ca^2+. For the single-channel assay, the switching between the closed and open conditions was determined by setting a potency at a half of a unitary current amplitude. […] The macroscopic current of the expressed BKCa channel was activated by a voltage-clamp pulse delivered from a holding potential of −100 mV at 10 mV increment to a membrane potential of typically −80 to 200 mV, A dwell-time of recorded open and close events for the single BKCa channel was analyzed using a linear histogram method. […]

T1 sequence (Q62976 whole entry G803D/N806K): as the sequence (Q62976 whole entry) above, with G803D, N806K counted along it

## C=C(C)[C@H](CC=C(C)C)Cc1c(O)cc(OC)c2c1O[C@H](c1ccc(O)cc1O)CC2=O [kurarinone]
[1]; 5 μM final concentration, compared to vehicle (1% DMSO), among 794 natural compounds
  TI+ fluorescence increase in library screening: strongest fluorescence increase
[1]; 10 μM, n=4
  TI+-fluorescence enhancement (initial RFU increase): strong fluorescence increase
[1]; 3, 5, 10, 30 μM
  concentration dependence of TI+ fluorescence: increased in a dose-dependent manner
[2]; 10 μM intracellular Ca2+, control 68.7±3.7 mV
  half-activation voltage (V1/2) of single-channel open-probability: 43.7±2.1 mV
[2]; 10 μM intracellular Ca2+, control 221.1±16.4
  single-channel conductance: 238.3±8.7 pS
[2]; 50 mV, 2.98+/−0.34 ms in absence
  average opening-time of single channel: 5.77 ± 0.90 ms
[2]; 50 mV, 3.69±0.80 ms in absence
  average closing time of single channel: 3.60 ± 4.1 ms
